From patent publication US4402972A, “Cyclopropane carboxylic acid derivatives” (Roussel Uclaf, priority 1980, dated 1983) come the findings set out here.

One may read the mortality as the percentage killed. A higher mortality goes with a strong lethal effect. Broadly, the inhibition is how much of the control response was suppressed. High values mean strong suppression, low ones little suppression.

Assay [1] relates to mixture of spores of Aerobacter aerogenes, Pseudomonas aeruginosa, Escherichia coli, Serratia mancescens and Bacillus subtilis. Put plainly: Bactericidal activity (3% carboxymethyl starch in water). The conditions noted are these: for bacterial population after 48 hours: control 12 × 10^7; for bacterial population after 8 days: control 16 × 10^7. Type of assay: cell-based. The method, then:
The bactericidal activity of (1R,cis) 2,2-dimethyl-3-[Z-2-(methoxycarbonyl)-ethenyl]-cyclopropane-carboxylic acid was determined with a solution of 3% of carboxymethyl starch in water. The test compound was placed in 1 ml of water and 5 ml of an innoculum of a mixture of spores of Aerobacter aerogenes, Pseudomonas aeruginosa, Escherichia coli, Serratia mancescens and Bacillus subtilis were added thereto. The mixture was placed in an oven for 48 hours at 37° C. and then for 6 days at 20° C. The bacterial population ([…]) was determined 48 hours and 8 days by the serum dihibition method and incorporation into broth containing agar.

In assay [2] the test system is mixture of spores of Fusarium roseum, Penicillium roquefonti and Aspergilus niger. The experiment in a line: Antifungal activity, adhesive test (3% carboxymethyl starch). The conditions noted are these: for Growth of Fungus after 48 hours / Growth of Fungus after 8 days: scale of 3 to 0, untreated control 3. It is filed as cell-based. As for the experimental part:
The antifungal activity of (1R,cis) 2,2-dimethyl-3-[Z-2-(methoxycarbonyl)-ethenyl]-cyclopropane-carboxylic acid was determined in an adhesive test using an aqueous 3% carboxymethyl starch solution. The test compound was dissolved in 1 ml of acetone and 5 ml of an innoculum consisting of a mixture of spores of Fusarium roseum, Penicillium roquefonti and Aspergilus niger were added thereto. The development of fungus after 48 hours and 8 days was compared to an untreated control on a scale of 3 to 0.

For assay [3], the system named is Fusarium, Penicillium, Aspergilus, Geotrichum, Trichosporon and Cephalosporium. The experiment in a line: Antifungal activity of the acids (general statement). Type of assay: cell-based.
The subject of assay [4] is mixture of spores of Geotrichum, Trichosporon and Cephalosporium. The experiment in a line: Anti-fungal test on oils (3% synthetic fluid). Type of assay: cell-based. The following applies: for Anti-fungal growth after 48 hours: control 49 × 10^3 Geo. + 80 × 10^3 Tri. + 11 × 10^3 Cep. As for the experimental part:
A solution of 3% of synthetic fluid was used to test the anti-fungal activity of (1R,cis) 2,2-dimethyl-3-[Z-2-(methoxycarbonyl)-ethenyl]-cyclopropane-carboxylic acid and contamination was effected with 5 ml of an innoculum consisting of a mixture of spores of Geotrichum, Trichosporon and Cephalosporium.

Assay [5] concerns Epilachna varivestris Larvae. Put plainly: Activity against Epilachna varivestris larvae, topical application. It is filed as in vivo. The following applies: for LD50: topical, second last stage larvae, 72 hours. The method, then:
The test was carried out by topical application of the test compounds as in test B and the larvae of Epilachna variestris were in second last stage. The treated larvae were then placed on bean plants and the number of dead was determined after 72 hours to calculate the LD50 in ng.

The test system of assay [6] is houseflies. Put plainly: Insecticidal activity on houseflies, topical application. The following applies: 1 μl acetone solution, dorsal thorax, 4 day old females, 24 hours. Type of assay: in vivo. As for the experimental part:
The test was effected on 4 day old female houseflies which received a topical application of 1 μl of an acetone solution of the test compound on the dorsal thorax with an Arnold micro-manipulator. 50 insects were used for each test and the number of dead insects were determined after 24 hours to calculate the LD50 dose in nanograms (the dose killing 50% of the insects).

The next assay deals with insects. The experiment in a line: Insecticidal activity (general statement). The conditions noted are these: in vivo.
Assay [7] has as its system Spodoptera littoralis larvae. Put plainly: Activity against Spodoptera littoralis larvae, topical application. It is filed as in vivo. The conditions noted are these: dorsal thorax, fourth stage larvae, 48 hours. As for the experimental part:
The test was carried out on larvae of Spodoptera littoralis by applying an acetone solution of the test compound with an Arnold micro-manipulator to the dorsal thorax of the larvae. 10 to 15 larvae were used for each tested dose and the larvae were in the fourth stage (about 10 days old at 24° C. and 65% relative humidity). The larvae were then placed in an artifical medium (Poitout medium) and the number of dead were determined after 48 hours to calculate the LD50 in ng.

Assay [8] has as its system houseflies. The experiment in a line: Knock-down activity on houseflies, direct spray in Kearns and March chamber. Type of assay: in vivo. The conditions noted are these: for KT50: 0.25 g/l solution, 2 ml, direct spray, 4 day old females. The method, then: 50 4 day old female houseflies per dose were directly sprayed in a Kearns and March chamber with a solution of the 0.25 g/l of the test compound in 2 ml of a mixture of 5% of acetone and Isopar L (petroleum solvent) in one second.

Another assay deals with Amblyomma hebraeum. The experiment in a line: Activity against Amblyomma hebraeum ticks. Type of assay: in vivo. As for the experimental part: (§1) A 10% emulsifiable concentrate was prepared by dissolving the test compound of Example 6 in a mixture of dimethylformamide, emulsifiers and Arcopal and the concentrate was diluted with water to obtain solutions of 10,5 and 1 ppm of active compound. The different solutions were sprayed by a spraying tower on to larvae of tropical cattle ticks of the Boophilus microplus type (Mexico sensitive and DDT resistant strains) and the number of dead and live larvae was determined after 24 hours.
(§2) The test procedure of F was repeated with the compound of Example 6 at doses of 100, 10 and 1 ppm using 10 ticks of Rhipicephalus appendiculatus or Amblyomma hebraeum per test as above.

Assay [9] concerns Boophilus microplus ticks (Mexico sensitive strain). The experiment in a line: Inhibition of reproduction of Boophilus microplus ticks. Type of assay: in vivo. As for the experimental part:
Female Boophilus microplus ticks of the Mexico sensitive strain ready to lay eggs were immersed for 5 minutes in solutions of 100, 50, 25, 12.50 and 6.25 ppm of the compound of Example 6 and then they were placed in a heated enclosure to lay their eggs.

Assay [10] has as its system Boophilus microplus larvae (DDT resistant). Put plainly: Activity against Boophilus microplus larvae, DDT resistant strain. Type of assay: in vivo. As for the experimental part: as §1
Assay [11] has as its system Boophilus microplus larvae (Mexico sensitive). The experiment in a line: Activity against Boophilus microplus larvae, Mexico sensitive strain. It is filed as in vivo. The method, then:
as §1

The subject of assay [12] is Rhipicephalus appendiculatus. The experiment in a line: Activity against Rhipicephalus appendiculatus ticks. Type of assay: in vivo. As for the experimental part:
as §1, §2

[13] abbreviates: Mexico sensitive and DDT resistant strains together.
Setting [14] is: Rhipicephalus microplus, in Bos taurus, 1 ppm, 24 hours.
[15] abbreviates: Rhipicephalus microplus, in Bos taurus, 5 ppm, 24 hours.
[16] abbreviates: Rhipicephalus microplus, in Bos taurus, 10 ppm, 24 hours.

For the molecule `COC(=O)/C=C\[C@H]1[C@@H](C(=O)O)C1(C)C` (relative stereo) [(1R,cis) 2,2-dimethyl-3-[(Z)-2-(methoxycarbonyl)-ethenyl]-cyclopropane-carboxylic acid], in assay [1], the “bactericidal activity (in words)” value is given as “good bactericidal activity”. The “bacterial population after 48 hours” value was 10 × 10^4 colorless ml in assay [1] (0.025%) and 52 × 10^2 colorless ml in [1] (0.05%). Besides, the “bacterial population after 8 days” value in assay [1] (0.025%) is given as 16 × 10^6 colorless ml; in [1] (0.05%), 68 × 10^4 colorless ml. Moreover, the “anti-fungal activity (in words)” value in assay [2] is reported as “good anti-fungal activity”. For the same molecule, the figures for the “Growth of Fungus after 48 hours” value in assay [2] (0.01 % concentration) and in assay [2] (0.05 % concentration) were 3 and 0, respectively. Also, the “Growth of Fungus after 8 days” value in [2] (0.01 % concentration) is reported as 3; in [2] (0.05 % concentration), 0. In addition, the “fungicidal properties / antifungal activity (in words)” value in assay [3] is recorded as “interesting fungicidal properties”. The “antifungal activity on oils (in words)” value in [4] was “good antifungal activity”. Further, the “Anti-fungal growth after 48 hours” value in assay [4] (0.5 % concentration) and in assay [4] (1 % concentration) was 0 in each case.
`COC(=O)/C=C\[C@H]1[C@@H](C(=O)O[C@H](C#N)c2cccc(Oc3ccccc3)c2)C1(C)C` [Example 1, (S)α-cyano-3-phenoxy-benzyl (1R,cis) 2,2-dimethyl-3-[Z-2-methoxycarbonyl-ethenyl]-cyclopropane-carboxylate]: the results for the LD50 (in [5]; in the assay on houseflies [6]; in assay [7]) were 8.290 ng, 7.128 ng and 3.602 ng, respectively. In addition, in the assay with insects, the “insecticidal activity (in words)” value is reported as “particularly remarkable insecticidal activity”. Besides, the KT50 with houseflies [8] was determined as 1.226 min. In the assay with houseflies [8] (in vivo), the “knock-down activity (in words)” value is “remarkable knock-down activity”.
In the case of `CCOC(=O)/C=C\[C@H]1[C@@H](C(=O)O[C@H](C#N)c2cccc(Oc3ccccc3)c2)C1(C)C` [Example 3, (S)α-cyano-3-phenoxy-benzyl (1R,cis) 2,2-dimethyl-3-[Z-2-(ethoxycarbonyl)-ethenyl]-cyclopropane-carboxylate], the LD50 came out at 8.850 ng in [5], 3.494 ng in the assay with houseflies [6] and 3.260 ng in [7]. Besides, the KT50 in the assay with houseflies [8] came to 3.340 min.
The corresponding values for `CC(C)OC(=O)/C=C\[C@H]1[C@@H](C(=O)O[C@H](C#N)c2cccc(Oc3ccccc3)c2)C1(C)C` [Example 5, (S)α-cyano-3-phenoxy-benzyl (1R,cis) 2,2-dimethyl-3-[Z-2-(isopropoxycarbonyl)-ethenyl]-cyclopropane-carboxylate] are 3.705 ng, 2.781 ng, 7.920 ng and 4.390 min.
As for `CC(C)(C)OC(=O)/C=C\[C@H]1[C@@H](C(=O)O[C@H](C#N)c2cccc(Oc3ccccc3)c2)C1(C)C` [Example 6, (S)α-cyano-3-phenoxy-benzyl (1R,cis) 2,2-dimethyl-3-[Z-2-(tert.-butoxycarbonyl)-ethenyl]-cyclopropane-carboxylate], the mortality at 1 ppm in the assay with Amblyomma hebraeum (Amblyomma hebraeum, 1 ppm) is 70%; in assay [10] (setting [14]), 100%; in assay [11] (setting [14]), 100%; in assay [12] (Rhipicephalus appendiculatus, 1 ppm), 100%. The mortality at 10 ppm in the assay with Amblyomma hebraeum (Amblyomma hebraeum, 10 ppm) is 100%; in [10] (setting [16]), 100%; in [11] (setting [16]), 100%; in assay [12] (Rhipicephalus appendiculatus, 10 ppm), 100%. Moreover, the mortality at 100 ppm came out at 100% in the assay with Amblyomma hebraeum (Amblyomma hebraeum, 100 ppm) and 100% in [12] (Rhipicephalus appendiculatus, 100 ppm). Also, in the assay with Amblyomma hebraeum (in vivo), the “tickicide activity against Amblyomma hebraeum (in words)” value was “excellent tickicide activity”. Moreover, the inhibition at 6.25 ppm in [9] (Rhipicephalus microplus, 5 min, 6.25 ppm, 5 minutes immersion) was 100%. The same molecule yielded an inhibition at 12.5 ppm in assay [9] (Rhipicephalus microplus, 5 min, 12.50 ppm, 5 minutes immersion) of 100%. The molecule further registered an inhibition at 25 ppm in assay [9] (Rhipicephalus microplus, 5 min, 25 ppm, 5 minutes immersion) of 100%. Besides, at 50 ppm the inhibition in [9] (Rhipicephalus microplus, 5 min, 50 ppm, 5 minutes immersion) was 100%. The molecule also had an inhibition at 100 ppm in assay [9] (Rhipicephalus microplus, 5 min, 100 ppm, 5 minutes immersion) of 100%. The “tickicide activity, reproduction test (in words)” value in assay [9] (in vivo) was “remarkable tickicide activity”. Also, in assay [10] (setting [13]), the “activity against Boophilus microplus larvae, DDT resistant (in words)” value is reported as “remarkable activity”. The mortality at 5 ppm in assay [10] (setting [15]) and in assay [11] (setting [15]) was 100% throughout. Also, the “insecticidal activity against Epilachna larvae (in words)” value in assay [5] (in vivo) is “good insecticidal activity”. This molecule also came in with an LD50 in [5] of 0.446 ng. For the same molecule, the “activity against Boophilus microplus larvae, Mexico sensitive (in words)” value in assay [11] (setting [13]) is “remarkable activity”. Moreover, the “tickicide activity against Rhipicephalus appendiculatus (in words)” value in assay [12] (in vivo) was “excellent tickicide activity”.
